Laboratory results taken from US6693126B2, “Dihydroxyphenyl derivatives for hepatoprotection and treatment of liver diseases” (Choongwae Pharm. Co., Ltd., priority 2000, dated 2004).

Experiments:
[1] = system: Liver Injuries caused by Carbon Tetrachloride in Rats; assay: Inhibitory effect against liver injuries caused by carbon tetrachloride in rats; assay type: in vivo, Rats (SD, male); details: CCl4 i.p., serum 24 h
Text: (§1) The carbon tetrachloride model(see, Philippe letteron et al., Biochemical Pharmacology, 39, 12, 2027-2034, 1990; Tips, 10, 1989; Kyoichi Kagawa et al., Japan J. Pharmacol., 42, 19-26, 1986; K. T. Liu and P. Lesca, Chem. Biol. Interactions, 41, 39-47, 1982; Richard O. et al., J. Biological Chemistry, 236, 2, 1961) is used most generally. This model has been established based on the internal phenomena that carbon tetrachloride is converted by cytochrome P-450 to a toxic free radical trichloromethyl(CCl3.), this radical is strongly bound to a thiol group of membrane protein on microsome of liver to form a lipid radical, which is then converted to a peroxy radical in the presence of oxygen to facilitate the peroxidation reaction of membrane lipid. That is, carbon tetrachloride suppresses protein biosynthesis in the liver, induces the increase of ALT and AST values in blood, and further causes histologically the centrilobular necrosis of the liver.
(§2) The degree of liver damage in the experimental animals was determined by measuring ALT and AST values in blood(see, Biol. Pharm. Bull., 20, 4, 381-385, 1997; Toxicology and Applied Pharmacology, 95, 1-11, 1988), and the hepatoprotective activity was calculated based on the following formula(see, Planta Medica, 55, 127-132, 1989). At this time, the hepatoprotective activity can also be calculated based on the same formula by replacing ALT value with AST value. [formula]
(§3) The hepatoprotective effect of the compound of the present invention was identified according to a known procedure(see, Philippe letteron et al., Biochemical Pharmacology, 39, 12, 2027-2034, 1990), and the protocol may be described in brief as follows.
(§4) Rats(SD, male, 180˜200 g) and mice(ICR, male, 27-35 g) used in the test were allowed in a condition of temperature 22±1° C. and relative humidity 60±5%. Feed and water were provided with no restriction while light and darkness were changed at an interval of 12 hours.
(§5) […] […] Each group included 8 test animals, and the test compound was orally administered once per animal. After 30 minutes(rat) or 1 hour(mouse) from the administration of the test compound, 10% carbon tetrachloride in corn oil solution was intraperitoneally injected in doses of 2 ml/kg in rats and 0.15 ml/kg in mice. As the control compounds, silymarin and DDB were selected.
(§6) The test animals were provided with no feed and sufficient water for 24 hours from the administration of carbon tetrachloride. […] This blood was centrifuged to obtain sera. ALT and AST values in the sera were measured using blood chemistry analyzer(Vitalab, Selectra II, Merck). The statistical significance for the test result of each group was examined based on Student's t-test, and the result was recognized as having a statistical significance when its P value is less than 5%.

[2] = system: Liver Injuries caused by Carbon Tetrachloride in Mice; assay: Inhibitory effect against liver injuries caused by carbon tetrachloride in mice; assay type: in vivo, mice (ICR, male); details: CCl4 i.p., serum 24 h
Text: as §1, §2, §3, §4, §5, §6

[3] = system: Liver Injuries caused by Thioacetamide in Mice; assay: Inhibitory effect against liver injuries caused by thioacetamide in mice; assay type: in vivo, Mice (ICR, male); details: thioacetamide i.p., dose 50 mg/kg p.o. once, serum 24 h
Text: The hepatoprotective effect of the compound of formula (1) was also identified by thioacetamide model(see, Masuda Yasusuke and Nakayama Nobue, Biochemical Pharmacology, 31, 17, 2713-2725, 1982; Liu Jie et al., Acta Pharmacologica Sinica, 16, 2, 97-102, 1995; Story D. L. et al., J. Tox. Environ. Health, 11, 483-501, 1983; Gomez-Lechon M. J. et al., Xenobiotica, 18, 6, 725-735, 1988) which is frequently used as an experimental model for liver injuries. This model has been established based on the phenomena that thioacetamide activated by P-450 S-oxidation inordinately increases the influx of calcium ion(Ca^++) into the liver cells, which in turn activates calcium ion-dependent phospholipase, protease and endonuclease, changes the cell frame through the calcium ion, exhausts ATP, and consequently destroys the liver cells. Thioacetamide also damages ureogenesis pathway in liver, and the metabolite of thioacetamide inhibits the transfer of RNA and makes the liver cell membranes unstable. A series of these activities results in the destruction of the liver cells, which in turn causes the increase of ALT and AST values in blood and also causes histologically the centrilobular necrosis.
as §2
The hepatoprotective effect of the compound of the present invention was identified according to a known procedure(see, Landon, E. J. et al., Biochemical Pharmacology, 35, 4, 697-705, 1986), and the protocol may be described in brief as follows.
(§7) Mice(ICR, male, 27˜35 g) as the test animal were allowed in a condition of temperature 22±1° C. and relative humidity 60±5%. Feed and water were provided with no restriction while light and darkness were changed at an interval of 12 hours.
The compound of the present invention was suspended in a solvent corn oil, and this suspension was administered in a dose of 10 ml/kg. Each group included 8 test animals, and the test compound was orally administered once per animal. After 1 hour from the administration of the test compound, thioacetamide solution(concentration: 90 mg/ml) in physiological saline was intraperitoneally injected in a dose of 1 ml/kg. As the control compounds, silymarin and DDB were selected.
as §6, with “thioacetamide.” for “carbon tetrachloride.”

[4] = system: Fulminant Liver Injuries caused by D-galactosamine/lipopolysaccharide in Mice; assay: Inhibitory effect against fulminant liver injuries caused by D-galactosamine/lipopolysaccharide in mice (survival); assay type: in vivo, Mice (ICR, male); details: D-galactosamine 800 mg/kg + lipopolysaccharide 10 μg/kg i.p., dose 50 mg/kg oral once, observed 24 hours
Text: Further, the D-galactosamine/lipopolysaccharide model(see, Chris Galanos et al., Proc. Natl. Acad. Sci. USA, 76, 11, 5939-5943, 1979; Koji Hase et al., Biol. Pharm. Bull., 20, 4, 381-385, 1997; Junichi Nagakawa et al., The Journal of Pharmacology and Experimental Therapeutics, 264, 1, 1992; Nolan J. D., Hepatology, 1, 458-465, 1981; Wendel A., Methods Enzymol., 186, 675-680, 1990) which is also used in the present invention for the identification of hepatoprotective effect is based on the phenomena that liver injuries are caused by immune responses in mouse. It has been reported that such kind of liver injuries are caused not by direct tissue lesions due to the chemicals but by secretion of tumor necrosis factor(TNF)-α, reactive oxygen, etc.(see, Hishinuma I. et al., Hepatology, 12, 1187-1191, 1990, Hase K. et al., Phytother. Res., 10, 387-392, 1996). Here, D-galactosamine supresses protein biosynthesis and as well highly increases the sensitivity of the liver cells for lipopolysaccharide by reducing uridine nucleotide.
The hepatoprotective effect of the compound of the present invention was identified according to a known procedure(see, Koji Hase et al., Biol. Pharm. Bull., 20, 4, 381-385, 1997), and the protocol may be described in brief as follows.
as §7
The compound of the present invention was suspended in a solvent corn oil, and this suspension was administered in a dose of 10 ml/kg. Each group included 10 test animals, and the test compound was orally administered once per animal. After 1 hour from the administration of the test compound, D-galactosamine and lipopolysaccharide each of which dissolved in physiological saline were intraperitoneally injected at the same time in doses of 800 mg/kg and 10 μg/kg, respectively. As the control compounds, SY-640[N-methyl-N-(3,4-methylenedioxyphenacyl)acetamide; EP0350251], silymarin and DDB were selected.
The statistical significance for the test result of each group was examined based on Student's t-test, and the result was recognized as having a statistical significance when its P value is less than 5%.

C(=N\OCc1ccccn1)/c1ccc2c(c1)OCO2 [Compound 9, 1-[(2-pyridyl)methoxy]-1-aza-2-benzo[3,4-d]1,3-dioxolan-5-ylethene]
Inhibitory Effect against Liver Injuries (%) ALT ([1]; dose 1.9 mg/kg p.o. once): 61%
Inhibitory Effect against Liver Injuries (%) ALT ([1]; dose 5.6 mg/kg p.o. once): 60%
Inhibitory Effect against Liver Injuries (%) ALT ([1]; dose 16.7 mg/kg p.o. once): 56%
Inhibitory Effect against Liver Injuries (%) ALT ([1]; dose 50 mg/kg p.o. once): 75%
Inhibitory Effect against Liver Injuries (%) ALT ([2]; dose 1.9 mg/kg p.o. once): 64%
Inhibitory Effect against Liver Injuries (%) ALT ([2]; dose 5.6 mg/kg p.o. once): 64%
Inhibitory Effect against Liver Injuries (%) ALT ([2]; dose 16.7 mg/kg p.o. once): 87%
Inhibitory Effect against Liver Injuries (%) ALT ([2]; dose 50 mg/kg p.o. once): 98%
Inhibitory Effect against Liver Injuries (%) ALT [3]: 29%
Survival Rate (%) [4]: 90%

CC(=O)N(C)CC(=O)c1ccc2c(c1)OCO2 [SY-640, N-methyl-N-(3,4-methylenedioxyphenacyl)acetamide, reference compound]
Survival Rate (%) [4]: 90%
